From patent publication US4451575A, “Activators for Ziegler type polymerization catalysts using bis(trichloromethyl) sulfone” (Uniroyal, Inc., priority 1982, dated 1984)

Key:
eye = assay: Eye irritation
Acute Oral LD50 = details: rat, in vivo
rabbit skin = assay: Primary Skin Irritation

| Compound | Eye irritation (eye; left in without washout) | Eye irritation (eye; material washed out 4 seconds after introduction) | LD50 (Acute Oral LD50) [mg/kg] | Primary Skin Irritation (rabbit skin) | Ames Test, mutagenicity (Ames Test (mutagenicity)) |
| --- | --- | --- | --- | --- | --- |
| O=C(OCC1(Cl)OC(Cl)C(Cl)C1Cl)C1(Cl)OC(Cl)C(Cl)C1Cl (stereo not drawn) [ZXU, Tetrachlorotetrahydrofurfuryl Tetrachlorotetrahydrofuroate] | severe irritant | Mild irritant | 1100 ± 150 | Moderate irritant | negative |
| CCCCOC(=O)C1(Cl)OC(Cl)C(Cl)C1Cl (stereo not drawn) [UKU, Butyl 2,3,4,5-Tetrachloro-2,3,4,5, Tetrahydro-2-Furoate] | – | – | – | – | negative |
